Reference: article PMC10970593, “Jozimine A2, a Dimeric Naphthylisoquinoline (NIQ) Alkaloid, Shows In Vitro Cytotoxic Effects against Leukemia Cells through NF-κB Inhibition” (International Journal of Molecular Sciences, 2024)
Read-outs that look alike come from different tables or passages of the source.

Biological target: T1, NF-κB (human recombinant; p65 subunit used in docking) (Homo sapiens, UniProt Q04206)
T1 construct: gene RELA; human recombinant NF-κB protein, Sino Biological cat; No. 12054-H09E
Assay: microscale thermophoresis with labeled recombinant protein
Assay type: binding

| Kd (read-out: Kd) | Compound | Kd |
| --- | --- | --- |
| 1.66 ± 0.012 µM | COc1cccc2c(-c3ccc4c(c3O)[C@@H](C)N[C@H](C)C4)c(C)c(-c3c(C)c(-c4ccc5c(c4O)[C@@H](C)N[C@H](C)C5)c4cccc(OC)c4c3O)c(O)c12 [jozimine A2] | – |
| – | COc1cc(C)cc2c(-c3c(O)cc(O)c4c3C[C@@H](C)N[C@@H]4C)cc(-c3cc(-c4c(O)cc(O)c5c4C[C@@H](C)N[C@@H]5C)c4cc(C)cc(OC)c4c3O)c(O)c12 [michellamine B] | 2.8 ± 0.094 µM |
